Results published in article PMC12970513, “Unsaturated Phosphorus Electrophiles to Probe Protein Tyrosine Phosphatases” (Angewandte Chemie (International Ed. in English), 2026).
*1 amine or outer side, *2 acyl side, *3 side chain or, on linkers, in order; H or OH if unused. Where a SMILES comes first, the peptide text is derived from it. [ ]: non-standard residue; d: D form. The star is where a group is joined. X1 = C#CP(=O)(O)Oc1ccc(C[C@H](N[*:1])C(=O)[*:2])cc1; X2 = C#CP(=O)(O)Nc1ccc(C[C@H](N[*:1])C(=O)[*:2])cc1; Biotin = O=C1N[C@H]2[C@H](CS[C@H]2CCCCC(=O)*)N1

How the values were obtained:
[1] = Lysate labeling by fluorescence gel scanning, HEK293T; parameters: species or system human; conditions: HEK293T lysate 2 mg/mL, 50 mM sodium succinate pH 6.0, 150 mM NaCl, 1 mM EDTA, 1 mM DTT, 1 h, R.T.
Description: Having identified suitable conditions, we aimed to compare our target‐specific peptide PO‐probe with a broad reactivity PTP probe in order to visualize the different reactivity patterns in human lysate. […] Using the previously reported buffer conditions, HEK293T cell lysate (50 mM sodium succinate, pH 6.0, 150 mM NaCl, 1 mM EDTA, 1 mM DTT) was incubated for 1 h with TMR‐BBP (100 µM).
For fluorescence gel scanning of TMR labeled probes samples resolved by SDS-PAGE and first visualized at a Bio-Rad imaging system equipped with a 532 nm laser for excitation. Afterwards, wherever applicable gels were stained with Coomassie brilliant blue.
For the comparison of the labeling pattern between TMR-PO and a general phosphatase probe (TMR-BBP) freshly lysed HEK293T cell lysate was adjusted to 2 mg/mL. […] For labeling with TMR-BBP cells were lysed in 50 mM sodium succinate buffer pH 6.0, 150 mM NaCl, 1 mM EDTA, and 1 mM DTT as previously reported.^[3] […] The reactions were incubated for 1 hour at room temperature and subsequently analyzed by fluorescence gel scanning.
A volume of 49 µL of each lysate was mixed with 1 µL of a 5 mM TMR-PO stock solution in DMSO and incubated for 1 hour at room temperature. Samples were resolved by SDS-PAGE and analyzed by fluorescence gel scanning.

[2] = Stability of bio-PN and bio-PO in HEK293T cell lysate by 31P NMR; assay type: in vitro ADME, human; conditions: HEK293T lysate (1 mg/mL), 1 mM peptide, room temperature
Description: Next, we assessed the stability of the phosphonamidic and phosphonic acid in aqueous buffers at pH 2, pH 3.5, pH 7.4, pH 8.5, and pH 11. Therefore, SM‐PN and SM‐PO were added in the corresponding buffers and monitored for 48 h at room temperature via ^31P‐NMR with triphenylphosphinoxide (TPPO) as an internal standard (Figure S2). […] Furthermore, we evaluated the stability of the peptide probes bio‐PN and bio‐PO in human lysate for subsequent experiments. These peptides were added in HEK293T cell lysate, and changes in stability were recorded for 18 h via ^31P‐NMR, in which inorganic phosphate served as an internal standard. […] Nonetheless, both peptides display sufficient stability for follow‐up studies.
A solution of 480 µL of HEK293T cell lysate (1 mg/mL) was supplemented with 60 µL of D2O. To this, 60 µL of bio-PN or bio-PO (10 mM stock in DMSO, final concentration 1 mM) were added right before the start of the measurement. The mixtures were transferred to NMR tubes and one-dimensional ^31P-NMR spectra were recorded for each sample at room temperature, in intervals of 2.5 h over the course of 18 h on a Bruker AV-III 600 spectrometer. For analysis, the spectra were Fourier-transformed, baseline corrected and the intensity of the ^31P-NMR signal was obtained by integration.

With “α-bromo(4-((N-5/6-TAMRA-aminomethyl)phenyl)methyl)phosphonic acid [TMR-BBP]” the “labeling pattern in HEK293T lysate (TMR-BBP)” value [1] was “labeled many proteins across the whole proteome”.

With `C#CP(=O)(O)Oc1ccc(C[C@H](NC(=O)[C@H](CCC(=O)O)NC(=O)[C@H](CC(=O)O)NC(=O)[C@H](C)NC(=O)[C@H](CC(=O)O)NC(=O)CCCC[C@@H]2SC[C@@H]3NC(=O)N[C@@H]32)C(=O)N[C@@H](CC(C)C)C(=O)N[C@H](C(=O)N2CCC[C@H]2C(=O)N[C@@H](CCC(N)=O)C(=O)N[C@@H](CCC(N)=O)C(=O)NCC(N)=O)[C@@H](C)CC)cc1` [bio-PO] (Biotin-DADE[X1]LIPQQG-NH2) the “decay in HEK293T cell lysate” value ([2]; 18 h) was “remains intact” and the “remaining intact in HEK293T cell lysate” value ([2]; 18 h, inorganic phosphate internal standard) was “stayed unaltered”.

Molecule `C#CP(=O)(O)Nc1ccc(C[C@H](NC(=O)[C@H](CCC(=O)O)NC(=O)[C@H](CC(=O)O)NC(=O)[C@H](C)NC(=O)[C@H](CC(=O)O)NC(=O)CCCC[C@@H]2SC[C@@H]3NC(=O)N[C@@H]32)C(=O)N[C@@H](CC(C)C)C(=O)N[C@H](C(=O)N2CCC[C@H]2C(=O)N[C@@H](CCC(N)=O)C(=O)N[C@@H](CCC(N)=O)C(=O)NCC(N)=O)[C@@H](C)CC)cc1` [bio-PN] (Biotin-DADE[X2]LIPQQG-NH2) has a remaining at 18 h, 1 mM ([2]; human, HEK293T cell lysate, inorganic phosphate internal standard, read-out: remaining intact in HEK293T cell lysate) of 80% and a metabolised at 18 h, 1 mM ([2]; human, HEK293T cell lysate, read-out: decay in HEK293T cell lysate) of 20%.
